The values below come from patent US20220168230A1, “NANOPARTICLE MEDIATED THERAPY” (Yale University, priority 2019, published 2022).

For data set [1] the following is noted: in vivo; cited from earlier work.
Data set [2] is described as follows: PET scan of ^11C-glyburide uptake in left and right brain hemispheres of MCAO rats. The format is in vivo, rat. Particulars: intravenous injection, FIG. 1B.
The subject of data set [3] is MCAO mice. Nature of the data set: Therapeutic benefits in MCAO stroke mice (survival, TTC infarct volume, neurological score). Format: in vivo. Particulars: same amount of BA NPs and/or glyburide as in Gly-NPs, i.v. at 0, 24, 48 h, FIG. 6C, D. An excerpt:
MCAO models were generated according to Cai, et al. Neurosci Lett 2015, 597, 127-31; Guo, et al. ACS nano 2018, 12 (8), 8723-8732; Han, et al. Nanomedicine 2016, 12 (7), 1833-42; Yu, et al. Advanced Materials 2018, 30, 1705383. Briefly, rats were anesthetized with 5% isoflurane (Aerrane, Baxter, Deerfield, Ill.) in 30% O2/70% N2O using a Tabletop Anesthesia system (Harvard Apparatus, USA). Isoflurane was then maintained at 1.5%. During the procedures, the body temperature of mice was maintained at 37.0±0.5° C. Regional cerebral blood flow (rCBF) was monitored using a laser Doppler flowmeter (AD Instruments Inc.) duration the course of surgery. […]
Mice were given treatment intravenously at 0, 24 and 48 h after surgery. Mice were monitored for survival for 10 days and were euthanized if one of the following criteria was met: (1) the mouse's body weight dropped below 15% of its initial weight, or (2) the mouse became lethargic or sick and unable to feed. […] Three days later, the score of each mouse was assessed by a standard behavioral test and were scored as follows: (1) normal motor function, (2) flexion of torso and contralateral forelimb when animal was lifted by the tail, (3) hemiparalysis resulting in circling to the contralateral side when held by tail on flat surface, but normal posture at rest, (4) leaning to the contralateral side at rest, and (5) no spontaneous motor activity. […]

For data set [4] the following is noted: in vivo; cited from earlier work. This is another data set of the same source.

Molecules are shown by their SMILES.

Consider `C[C@@H]1CC[C@H]2[C@@H](C)C(=O)O[C@@H]3O[C@@]4(C)CC[C@@H]1[C@]32OO4` [Artemisinin], for which, in data set [1], the bioavailability entry is given as “less than 10%”.

`COc1ccc(Cl)cc1C(=O)NCCc1ccc(S(=O)(=O)NC(=O)NC2CCCCC2)cc1` [^11C-glyburide]: the “^11C-glyburide uptake, ischemic versus contralateral hemisphere” value in data set [2] is listed as “no significant difference”.

In the case of `COc1ccc(Cl)cc1C(=O)NCCc1ccc(S(=O)(=O)NC(=O)NC2CCCCC2)cc1` [glyburide], in data set [3], the “therapeutic benefits compared with Gly-NP treatment” value was “significantly less efficacy”. Moreover, the “ability to penetrate the BBB” value in data set [4] was “limited ability to penetrate the BBB”.
